# Article PMC11089204 (Frontiers in Pharmacology, 2024)
# Where a name gives a salt, the structure may show the parent alone.
# Assays:
# [1] = biological target: T1, recombinant MAO-B (Homo sapiens, UniProt P27338); assay: Incubation with recombinant MAO-B enzymes; type: in vitro ADME
# T1 construct: purchased Corning Life Sciences B.V
# T1 sequence (P27338 1-520): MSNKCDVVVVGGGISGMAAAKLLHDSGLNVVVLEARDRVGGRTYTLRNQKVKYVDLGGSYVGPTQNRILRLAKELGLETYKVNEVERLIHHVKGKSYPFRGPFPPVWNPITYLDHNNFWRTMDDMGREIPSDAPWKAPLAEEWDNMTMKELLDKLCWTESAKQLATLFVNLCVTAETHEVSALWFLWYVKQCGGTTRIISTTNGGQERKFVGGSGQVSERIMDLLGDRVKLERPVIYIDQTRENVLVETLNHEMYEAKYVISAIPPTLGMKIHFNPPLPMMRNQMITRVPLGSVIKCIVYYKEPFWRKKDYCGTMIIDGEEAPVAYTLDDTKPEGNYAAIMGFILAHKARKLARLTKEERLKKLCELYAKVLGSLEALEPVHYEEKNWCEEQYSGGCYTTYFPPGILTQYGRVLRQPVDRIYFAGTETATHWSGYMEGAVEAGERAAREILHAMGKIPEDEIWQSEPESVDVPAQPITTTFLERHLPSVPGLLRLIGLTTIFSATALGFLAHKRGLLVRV
# Description: (§1) Corning UltraPool human liver microsomes (HLM) 150 (20 mg/mL), human intestinal microsomes (HIM) pool (10 mg/mL) as well as recombinant human CYP enzymes (with P450 oxidoreductase, OR) including CYP1A2+OR (0.5 nmol), CYP2B6+OR (0.5 nmol), CYP2C8+OR (1.0 nmol), CYP2C9*1+OR (1 nmol), CYP2C19+OR (0.5 nmol), CYP2D6*1+OR (0.5 nmol), CYP2E1+OR + cytochrome b5 (1 nmol), CYP3A4+OR + cytochrome b5 (0.5 nmol), MAO-A (5 mg/mL), MAO-B (5 mg/mL), and UGT1A10 (5 mg/mL) were purchased from Corning Life Sciences B.V (Amsterdam, Netherlands). All microsomes and recombinant enzyme solutions were aliquoted and stored at −80 °C until further use.
# (§2) The MAO inhibition assay was based on the assay described in section 2.5.1 and performed identically if not otherwise stated.
# [2] = biological target: T2, recombinant MAO-A (Homo sapiens, UniProt P21397); assay: Incubation with recombinant MAO-A enzymes; type: in vitro ADME
# T2 construct: purchased Corning Life Sciences B.V
# T2 sequence (P21397 1-527): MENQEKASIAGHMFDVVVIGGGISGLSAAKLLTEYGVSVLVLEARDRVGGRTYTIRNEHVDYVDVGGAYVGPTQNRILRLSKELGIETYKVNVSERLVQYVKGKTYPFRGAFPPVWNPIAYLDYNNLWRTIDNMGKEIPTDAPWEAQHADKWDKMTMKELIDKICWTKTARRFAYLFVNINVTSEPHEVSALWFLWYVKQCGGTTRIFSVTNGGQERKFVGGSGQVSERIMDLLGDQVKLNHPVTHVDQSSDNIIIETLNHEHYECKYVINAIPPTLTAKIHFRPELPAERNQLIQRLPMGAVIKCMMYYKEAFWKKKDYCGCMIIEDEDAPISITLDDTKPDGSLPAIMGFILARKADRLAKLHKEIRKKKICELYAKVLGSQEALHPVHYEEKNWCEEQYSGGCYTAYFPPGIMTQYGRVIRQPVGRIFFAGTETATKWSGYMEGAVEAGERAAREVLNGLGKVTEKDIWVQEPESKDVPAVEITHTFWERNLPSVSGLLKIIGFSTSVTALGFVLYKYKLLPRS
# Description: as §1, §2
# [3] = Pharmacokinetics and metabolites in mouse plasma after oral psilocybin; type: in vivo, C57BL/6J mice; conditions: for half-life / Cmax / Tmax: male, C57BL/6J, po; for half-life: mouse, plasma, read-out: elimination half-life t1/2 (mean ± SD) (converted); for Cmax: read-out: Cmax (mean ± SD); for Tmax: read-out: tmax (mean ± SD)
# Description: C57BL/6J adult male mice (Janvier, Le Genest-Saint-Isle, France) were maintained in littermate pairs in standard cages (containing sawdust, a sleeping chamber, tissue paper, and a wood stick) with water and pellet food available ad libitium. The colony room was on a reversed light-dark cycle (dark phase 07:00 to 19:00) with temperature at 22°C and humidity at 50–60%. A total of 10 mice were dosed orally with either 3 mg/kg bodyweight psilocybin (n = 5) or saline solution (n = 5). Dosing and blood sampling were conducted between 09:00 and 13:00. The mouse was placed in a plastic restrainer with the tail protruding through a hole in the end of the tube. The tail was immersed in warm water for 1 min for vasodilation and then a small incision was made on the lateral tail surface near the distal tip. 50 μL of blood was massaged gently into an EDTA-coated capillary blood tube (Mircovette, Sarstedt, Nümbrecht, Germany). The first (baseline) blood sample was collected directly before compound administration via oral gavage and the mouse was then returned to the home cage. Further blood samples were collected at 15, 30, 60, and 120 min post-treatment. Each sample was drawn from the same incision site, with mice maintained in the home cage in the intervening periods. The blood samples were stored on ice and centrifuged for 10 min at 780 × g and 4°C. Subsequently, the plasma was transferred into cryotubes (Protein LoBind, Eppendorf) and stored at −80 °C until analysis. All procedures were conducted under a permit for animal experimentation (ZH038/2022) issued by the Veterinary Office Zurich in accordance with the Animal Protection Act (1978) of Switzerland. The use of psilocybin was authorized by the Federal Office of Public Health (FOPH).
# Pharmacokinetic parameters were calculated using Phoenix WinNonlin software (version 8.1.0, Certara, Princeton, USA). The elimination half-life (t1/2, min) was assessed as t1/2 = ln(2)/λ, while the elimination constant was calculated by linear regression in the terminal elimination phase. The maximal plasma concentration (Cmax, ng/mL) and the time to reach this concentration (tmax, h) were direct read-outs of the graphical plots.
# [4] = ref Holze et al., 2022a, cited from earlier work
# [5] = biological target: T3, MAO-A in human liver microsomes (HLM) (Homo sapiens, UniProt P21397); assay: Monoamine oxidase A inhibition in human liver microsomes; type: in vitro ADME; conditions: 5 μM kynuramine, t = 240 min
# T3 construct: tissue Corning Life Sciences B.V; host or cells: pooled human liver microsomes
# T3 sequence (P21397 1-527): T2 sequence (P21397 1-527)
# [6] = Metabolites in human plasma after oral psilocybin (reanalysed study samples); conditions: 30 mg psilocybin p.o., n = 5
# [7] = tested on: human intestinal microsomes (HIM); assay: Glucuronidation with human intestinal microsomes; type: in vitro ADME; conditions: HIM
# Description: as §1, with “use. Co-factors including NADPH regenerating system solution A (25 mM NADP+, 66 mM glucose-6-phosphate, and 66 mM MgCl2 in water), NADPH regenerating system solution B (40 U/mL glucose-6-phosphate dehydrogenase in 5 mM sodium citrate), UGT reaction mix solution A (25 mM uridine 5′-diphospho-glucuronic acid in water), and UGT reaction mix solution B (250 mM Tris-HCl, 40 mM MgCl2, and 0.125 mg/mL alamethicin in water) were also obtained from Corning Life Sciences B.V.” for “use.”
# The assay described in section 2.5.1 was adjusted to suit the glucuronidation system. […] HLM were diluted as described in section 2.5.1, while HIM or UGT1A10 enzymes were diluted 1:40 (end concentration […] and 0.125 mg/mL, respectively) in the reaction mix. Sampling time points were adjusted to 0, 15, 30, 60, 90, 120, 180, and 240 min.
# [8] = biological target: T4, recombinant human UGT1A10 (Homo sapiens, UniProt Q9HAW8); assay: Glucuronidation with recombinant UGT1A10; type: in vitro ADME
# T4 construct: purchased Corning Life Sciences B.V
# T4 sequence (Q9HAW8 26-530): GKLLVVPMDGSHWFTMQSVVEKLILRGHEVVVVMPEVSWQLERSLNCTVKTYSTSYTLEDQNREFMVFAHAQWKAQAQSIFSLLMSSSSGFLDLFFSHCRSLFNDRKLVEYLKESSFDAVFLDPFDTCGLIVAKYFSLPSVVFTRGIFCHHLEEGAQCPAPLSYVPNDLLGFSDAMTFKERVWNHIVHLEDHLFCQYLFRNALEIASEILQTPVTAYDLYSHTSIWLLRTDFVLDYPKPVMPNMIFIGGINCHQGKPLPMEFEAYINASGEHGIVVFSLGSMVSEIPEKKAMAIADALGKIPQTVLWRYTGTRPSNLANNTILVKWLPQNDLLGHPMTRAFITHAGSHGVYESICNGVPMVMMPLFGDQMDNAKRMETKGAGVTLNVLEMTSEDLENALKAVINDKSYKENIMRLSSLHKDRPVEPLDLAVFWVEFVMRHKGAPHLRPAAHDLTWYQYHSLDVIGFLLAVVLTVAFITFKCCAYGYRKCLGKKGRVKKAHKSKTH
# Description: as §1
# The assay described in section 2.5.1 was adjusted to suit the glucuronidation system.
# [9] = 1,000 nM DMT, rec. MAO-B, t = 240 min
# [10] = 1,000 nM DMT, rec. MAO-A, t = 240 min
# [11] = 3 mg/kg, mouse plasma, 3 mg/kg psilocybin p.o., n = 5
# [12] = mouse plasma, 3 mg/kg psilocybin p.o., n = 5
smiles,measurement,setting,value
"CN(C)CCc1c[nH]c2ccccc12 [DMT, N,N-dimethyltryptamine]",DMT concentration,"[1]; 1,000 nM DMT, rec. MAO-B, t = 0 min",940 ± 47 nM
same,DMT concentration,[1]; [9],816 ± 56 nM
same,DMT concentration,"[1]; rec. MAO-B with R-deprenyl, t = 0 min",954 ± 73 nM
same,DMT concentration,"[1]; rec. MAO-B with R-deprenyl, t = 240 min","1,008 ± 58 nM"
same,DMT concentration,"[2]; 1,000 nM DMT, rec. MAO-A, t = 0 min",907 ± 31 nM
same,DMT concentration,[2]; [10],110 ± 29 nM
same,DMT concentration,"[2]; rec. MAO-A with clorgyline, t = 0 min",915 ± 11 nM
same,DMT concentration,"[2]; rec. MAO-A with clorgyline, t = 240 min",853 ± 69 nM
"NCCC(=O)c1ccccc1N [kynuramine, kynuramine dihydrobromide]",kynuramine signal,"[1]; rec. MAO-B, t = 0 min","82,853 ± 11,336 counts"
same,kynuramine signal,"[1]; rec. MAO-B, t = 240 min","9,533 ± 8,311 counts"
same,kynuramine signal,"[2]; rec. MAO-A, t = 0 min","135,200 ± 23,816 counts"
same,kynuramine signal,"[2]; rec. MAO-A, t = 300 min","48,503 ± 12,251 counts"
CN(C)CCc1c[nH]c2cccc(OC3O[C@H](C(=O)O)[C@@H](O)[C@H](O)[C@H]3O)c12 (some centres unmarked) [psilocin-O-glucuronide],half-life,[3]; [11],58.2 ± 3.6 min
same,Cmax,[3]; [12],521 ± 57 ng/mL
same,Tmax,[3]; [12],21 ± 8.4 min
same,mean Cmax relative to psilocin (higher),"[3]; mouse plasma, 3 mg/kg psilocybin p.o.",2.6 fold
same,elimination half-life t1/2 (mean ± SD),"[3]; mouse plasma, 3 mg/kg psilocybin p.o., n = 5, 3 mg/kg",~60 min
same,half-life in mice relative to humans (lower),[3]; mouse versus human,around 4 fold
same,plasma concentrations of conjugated psilocin relative to free psilocin (higher),[4]; clinical studies,around 4 fold
same,fraction of administered psilocybin dose excreted in urine,"[4]; humans, oral psilocybin, within 24 h (time not stated for 4-HIAA)",Approximately 20%
same,half-life in humans,[4]; humans,around 4 h
"Oc1ccnc2ccccc12 [4-HQ, 4-hydroxyquinoline]",4-HQ concentration formed from kynuramine,[5]; HLM with clorgyline,347 ± 67 nM
same,4-HQ concentration formed from kynuramine,[5]; HLM,"1,974 ± 302 nM"
same,4-HQ concentration formed from kynuramine,"[1]; 5 μM kynuramine, rec. MAO-B, t = 240 min","4,692 ± 891 nM"
same,4-HQ concentration formed from kynuramine,"[2]; 5 μM kynuramine, rec. MAO-A, t = 300 min","2,694 ± 264 nM"
"O=C(O)Cc1c[nH]c2ccccc12 [IAA, indole-3-acetic acid]",IAA concentration formed from DMT,[1]; [9],11.5 ± 4.5 nM
same,IAA concentration formed from DMT,[2]; [10],30.3 ± 4.2 nM
O=C(O)Cc1c[nH]c2cccc(OC3O[C@H](C(=O)O)[C@@H](O)[C@H](O)[C@H]3O)c12 (some centres unmarked) [4-HIAA-glucuronide],half-life,[3]; [11],82.8 ± 16.2 min
same,Cmax,[3]; [12],30 ± 6.7 ng/mL
same,Tmax,[3]; [12],27 ± 6.6 min
CN(C)CCc1c[nH]c2cccc(OP(=O)(O)O)c12 [psilocybin],detection in human plasma,[6],did not detect
same,detection in mouse plasma,[3]; 3 mg/kg psilocybin p.o.,did not detect
"O=C1Nc2c(O)cc(Cl)cc2[C@@](C#CC2CC2)(C(F)(F)F)O1 [OH-efavirenz, 8-hydroxy-efavirenz]",OH-efavirenz glucuronidated,"[7]; over 240 min, control condition",99%
same,OH-efavirenz peak area,[7]; t = 0,"45,300 ± 5,766 counts"
same,OH-efavirenz peak area,[7]; t = 240 min,470 ± 394 counts
same,OH-efavirenz glucuronidated,"[8]; rec. UGT1A10, over 240 min, control condition",98%
same,OH-efavirenz peak area,"[8]; rec. UGT1A10, t = 0","41,700 ± 10,936 counts"
same,OH-efavirenz peak area,"[8]; rec. UGT1A10, t = 240 min","1,007 ± 155 counts"
